Laboratory results: patent US12297178B2, “Triazole derivative and use thereof” (GYEONGGIDO BUSINESS & SCIENCE ACCELERATOR, priority 2017, dated 2025)

Legend:
[1] = system: UCP1 (uncoupling protein-1); assay: Adipocyte differentiation induction experiment: relative UCP1 expression by real time PCR in C3H10T1/2 cells differentiated into white adipocytes; format: cell-based; settings: compound 20 μM; for Relative expression level of UCP1 compared to DMSO: relative to DMSO control; for Relative expression level of UCP1 compared to butein: relative to butein 20 μM control
Experimental: C3H10T1/2 cells were commercially purchased, and then differentiated into white adipocytes. The differentiated adipocytes were treated with the compounds obtained in the Preparation Examples at a concentration of 20 μM. A group treated with DMSO at a concentration of 20 μM and a group treated with butein at a concentration of 20 μM were used as a control group, respectively.
While the UCP1 (uncoupling protein-1) is contained in the mitochondria of brown adipocytes or beige adipocytes, it is difficult to find UCP1 in white adipocytes having little mitochondria. Therefore, by measuring the expression level of UCP1, it is possible to determine whether preadipocytes have differentiated into white adipocytes or otherwise brown adipocytes or beige adipocytes. The higher the expression level of UCP1, the more differentiated preadipocytes into brown adipocytes or beige adipocytes.

UCP1 = settings: reported in US Patent Publication No. US 2015/0374643 A1; cited from earlier work

SMILES | Relative expression level of UCP1 compared to DMSO [1] | Relative expression level of UCP1 compared to butein [1] | Effect on expression level of UCP1 (UCP1)
COc1ccc(-n2cc(-c3ccc(O)c(O)c3)nn2)c(OC)c1 [Compound 1, 4-(1-(2,4-dimethoxyphenyl)-1H-1,2,3-triazole-4-yl)benzene-1.2-diol] | 3.5 | 12.2 | 
Oc1ccc(-c2cn(-c3ccc(Cl)cc3)nn2)cc1O [Compound 2, 4-(1-(4-chlorophenyl)-1H-1,2,3-triazole-4-yl)benzene-1,2-diol] | 6.6 | 18.6 | 
Oc1ccc(-c2cn(-c3ccc(F)cc3)nn2)cc1O [Compound 3, 4-(1-(4-fluorophenyl)-1H-1,2,3-triazole-4-yl)benzene-1,2-diol] | 12.2 | 34.1 | 
Oc1ccc(-n2cc(-c3ccc(O)c(O)c3)nn2)cc1 [Compound 4, 4-(1-(4-hydroxyphenyl)-1H-1,2,3-triazole-4-yl)benzene-1,2-diol] | 2.1 | 18.6 | 
Cc1cc(-n2cc(-c3ccc(O)c(O)c3)nn2)ccc1O [Compound 5, 4-(1-(4-hydroxy-3-methylphenyl)-1H-1,2,3-triazole-4-yl)benzene-1.2-diol] | 2.3 | 20.6 | 
OCCOc1ccc(-n2cc(-c3ccc(O)c(O)c3)nn2)cc1 [Compound 15, 4-(1-(4-(2-hydroxyethoxy)phenyl)-1H-1,2,3-triazole-4-yl)benzene-1,2-diol] | 1.6 | 26.9 | 
C[NH+](C)CCOc1ccc(-n2cc(-c3ccc(O)c(O)c3)nn2)cc1.[Cl-] [Compound 16, 4-(1-(4-(2-(dimethylamino)ethoxy)phenyl)-1H-1,2,3-triazole-4-yl)benzene-1,2-diol Hydrochloride] | 2.3 | 37.0 | 
Nc1c(-c2ccc(Cl)cc2)nnn1-c1ccc(O)c(O)c1 [Compound 24, 4-(5-amino-4-(4-chlorophenyl)-1H-1,2,3-triazole-1-yl)benzene-1,2-diol] | 10.6 | 29.7 | 
O=C(/C=C/c1ccc(O)c(O)c1)c1ccc(O)cc1O [butein] |  |  | increases the expression level of UCP1
